Measured values published in patent US10294202B2, “Pyrrolidinones as herbicides” (FMC Corporation, priority 2013, dated 2019).

Columns and labels:
Test in all cases: Test D pre-/postemergence herbicide test
[1] = test system: bluegrass; type: in vivo, Poa annua; details: for Plant response rating: Bluegrass, scale 0 to 100; for Plant response rating, Bluegrass: scale 0 to 100 (0 no effect, 100 complete control)
From the text: (§1) Seeds of plant species selected from bluegrass (annual bluegrass, Poa annua), blackgrass (Alopecurus myosuroides), canarygrass (littleseed canarygrass, Phalaris minor), chickweed (common chickweed, Stellaria media), galium (catchweed bedstraw, Galium aparine), bromegrass, downy (downy bromegrass, Bromus tectorum), field poppy (Papaver rhoeas), field violet (Viola arvensis), foxtail, green (green foxtail, Setaria viridis), deadnettle (henbit deadnettle, Lamium amplexicaule), ryegrass, Italian (Italian ryegrass, Lolium multiflorum), kochia (Kochia scoparia), lambsquarters (Chenopodium album), oilseed rape (Brassica napus), pigweed (Amaranthus retroflexus), chamomile (scentless chamomile, Matricaria inodora), Russian thistle (Salsola kali), speedwell (bird's-eye speedwell, Veronica persica), barley, spring (spring barley, Hordeum vulgare), wheat, spring (spring wheat, Triticum aestivum), buckwheat, wild (wild buckwheat, Polygonum convolvulus), mustard, wild (wild mustard, Sinapis arvensis), oat, wild (wild oat, Avena fatua), radish, wild (wild radish, Raphanus raphanistrum), […]), barley, winter (winter barley, Hordeum vulgare), and wheat, winter (winter wheat, Triticum aestivum) were planted into a silt loam soil and treated preemergence with test chemicals formulated in a non-phytotoxic solvent mixture which included a surfactant. At the same time, these species were planted in pots containing Redi-Earth® planting medium (Scotts Company, 14111 Scottslawn Road, Marysville, Ohio 43041) comprising spaghnum peat moss, vermiculite, wetting agent and starter nutrients and treated with postemergence applications of the test chemicals formulated in the same manner. Plants ranged in height from 2 to 18 cm (1- to 4-leaf stage). Treated plants and controls were maintained in a controlled growth environment for 7 to 21 days after which time all species were compared to controls and visually evaluated. Plant response ratings, summarized in Table D, are based on a scale of 0 to 100 where 0 is no effect and 100 is complete control. A dash (-) response means no test result.

[2] = test system: blackgrass; type: in vivo, Alopecurus myosuroides; details: for Plant response rating: Blackgrass, scale 0 to 100; for Plant response rating, Blackgrass: scale 0 to 100 (0 no effect, 100 complete control)
From the text: as §1

[3] = test system: galium; type: in vivo, Galium aparine; details: for Plant response rating: Galium, scale 0 to 100; for Plant response rating, Galium: scale 0 to 100 (0 no effect, 100 complete control)
From the text: as §1

[4] = test system: bromegrass, downy; type: in vivo, Bromus tectorum; details: for Plant response rating: Bromegrass, Downy, scale 0 to 100; for Plant response rating, Bromegrass, Downy: scale 0 to 100 (0 no effect, 100 complete control)
From the text: as §1

[5] = test system: foxtail, green; type: in vivo, Setaria viridis; details: for Plant response rating: Foxtail, Green, scale 0 to 100; for Plant response rating, Foxtail, Green: scale 0 to 100 (0 no effect, 100 complete control)
From the text: as §1

[6] = test system: deadnettle; type: in vivo, Lamium amplexicaule; details: for Plant response rating: Deadnettle, scale 0 to 100; for Plant response rating, Deadnettle: scale 0 to 100 (0 no effect, 100 complete control)
From the text: as §1

[7] = test system: buckwheat, wild; type: in vivo, Polygonum convolvulus; details: for Plant response rating: Buckwheat, Wild, scale 0 to 100; for Plant response rating, Buckwheat, Wild: scale 0 to 100 (0 no effect, 100 complete control)
From the text: as §1

SMILES: O=C1NCC(c2ccc(F)c(F)c2)C1C(=O)Nc1ccccc1C(F)(F)F (racemic) [Compound 6]
- Plant response rating ([1]; Postemergence, 16 g ai/ha): 0
- Plant response rating ([1]; Postemergence, 31 g ai/ha): 0
- Plant response rating ([1]; Postemergence, 62 g ai/ha): 0
- Plant response rating ([1]; Postemergence, 125 g ai/ha): 0
- Plant response rating ([1]; Postemergence, 250 g ai/ha): 0
- Plant response rating, Bluegrass ([1]; Preemergence, 62 g ai/ha): 0
- Plant response rating, Bluegrass ([1]; Preemergence, 16 g ai/ha): 0
- Plant response rating, Bluegrass ([1]; Preemergence, 31 g ai/ha): 0
- Plant response rating ([1]; Preemergence, 125 g ai/ha): 0
- Plant response rating ([1]; Preemergence, 250 g ai/ha): 0
- Plant response rating ([2]; Postemergence, 16 g ai/ha): 0
- Plant response rating ([2]; Postemergence, 31 g ai/ha): 0
- Plant response rating ([2]; Postemergence, 62 g ai/ha): 5
- Plant response rating ([2]; Postemergence, 125 g ai/ha): 5
- Plant response rating ([2]; Postemergence, 250 g ai/ha): 10
- Plant response rating, Blackgrass ([2]; Preemergence, 62 g ai/ha): 0
- Plant response rating, Blackgrass ([2]; Preemergence, 16 g ai/ha): 0
- Plant response rating, Blackgrass ([2]; Preemergence, 31 g ai/ha): 0
- Plant response rating ([2]; Preemergence, 125 g ai/ha): 0
- Plant response rating ([2]; Preemergence, 250 g ai/ha): 0
- Plant response rating ([3]; Postemergence, 16 g ai/ha): 0
- Plant response rating ([3]; Postemergence, 31 g ai/ha): 0
- Plant response rating ([3]; Postemergence, 62 g ai/ha): 0
- Plant response rating ([3]; Postemergence, 125 g ai/ha): 0
- Plant response rating ([3]; Postemergence, 250 g ai/ha): 0
- Plant response rating, Galium ([3]; Preemergence, 62 g ai/ha): 50
- Plant response rating, Galium ([3]; Preemergence, 16 g ai/ha): 0
- Plant response rating, Galium ([3]; Preemergence, 31 g ai/ha): 0
- Plant response rating ([3]; Preemergence, 125 g ai/ha): 100
- Plant response rating ([3]; Preemergence, 250 g ai/ha): 100
- Plant response rating ([4]; Postemergence, 16 g ai/ha): 0
- Plant response rating ([4]; Postemergence, 31 g ai/ha): 0
- Plant response rating ([4]; Postemergence, 62 g ai/ha): 0
- Plant response rating ([4]; Postemergence, 125 g ai/ha): 0
- Plant response rating ([4]; Postemergence, 250 g ai/ha): 0
- Plant response rating, Bromegrass, Downy ([4]; Preemergence, 62 g ai/ha): 0
- Plant response rating, Bromegrass, Downy ([4]; Preemergence, 16 g ai/ha): 0
- Plant response rating, Bromegrass, Downy ([4]; Preemergence, 31 g ai/ha): 0
- Plant response rating ([4]; Preemergence, 125 g ai/ha): 0
- Plant response rating ([4]; Preemergence, 250 g ai/ha): 10
- Plant response rating ([5]; Postemergence, 16 g ai/ha): 0
- Plant response rating ([5]; Postemergence, 31 g ai/ha): 0
- Plant response rating ([5]; Postemergence, 62 g ai/ha): 0
- Plant response rating ([5]; Postemergence, 125 g ai/ha): 0
- Plant response rating ([5]; Postemergence, 250 g ai/ha): 20
- Plant response rating, Foxtail, Green ([5]; Preemergence, 62 g ai/ha): 0
- Plant response rating, Foxtail, Green ([5]; Preemergence, 16 g ai/ha): 0
- Plant response rating, Foxtail, Green ([5]; Preemergence, 31 g ai/ha): 0
- Plant response rating ([5]; Preemergence, 125 g ai/ha): 0
- Plant response rating ([5]; Preemergence, 250 g ai/ha): 10
- Plant response rating ([6]; Postemergence, 16 g ai/ha): 0
- Plant response rating ([6]; Postemergence, 31 g ai/ha): 0
- Plant response rating ([6]; Postemergence, 62 g ai/ha): 0
- Plant response rating ([6]; Postemergence, 125 g ai/ha): 10
- Plant response rating ([6]; Postemergence, 250 g ai/ha): 10
- Plant response rating, Deadnettle ([6]; Preemergence, 62 g ai/ha): 0
- Plant response rating, Deadnettle ([6]; Preemergence, 16 g ai/ha): 0
- Plant response rating, Deadnettle ([6]; Preemergence, 31 g ai/ha): 0
- Plant response rating ([6]; Preemergence, 125 g ai/ha): 40
- Plant response rating ([6]; Preemergence, 250 g ai/ha): 40
- Plant response rating ([7]; Postemergence, 16 g ai/ha): 0
- Plant response rating ([7]; Postemergence, 31 g ai/ha): 0
- Plant response rating ([7]; Postemergence, 62 g ai/ha): 0
- Plant response rating ([7]; Postemergence, 125 g ai/ha): 0
- Plant response rating ([7]; Postemergence, 250 g ai/ha): 10
- Plant response rating, Buckwheat, Wild ([7]; Preemergence, 62 g ai/ha): 0
- Plant response rating, Buckwheat, Wild ([7]; Preemergence, 16 g ai/ha): 0
- Plant response rating, Buckwheat, Wild ([7]; Preemergence, 31 g ai/ha): 0
- Plant response rating ([7]; Preemergence, 125 g ai/ha): 0
- Plant response rating ([7]; Preemergence, 250 g ai/ha): 0

SMILES: O=C1NCC(c2ccc(F)c(C(F)(F)F)c2)C1C(=O)Nc1cccc(F)c1F (racemic) [Compound 77]
- Plant response rating, Bluegrass ([1]; Preemergence, 62 g ai/ha): 5
- Plant response rating, Bluegrass ([1]; Preemergence, 31 g ai/ha): 0
- Plant response rating ([1]; Preemergence, 125 g ai/ha): 45
- Plant response rating ([1]; Preemergence, 250 g ai/ha): 55
- Plant response rating, Blackgrass ([2]; Preemergence, 62 g ai/ha): 25
- Plant response rating, Blackgrass ([2]; Preemergence, 31 g ai/ha): 10
- Plant response rating ([2]; Preemergence, 125 g ai/ha): 40
- Plant response rating ([2]; Preemergence, 250 g ai/ha): 65
- Plant response rating, Galium ([3]; Preemergence, 62 g ai/ha): 55
- Plant response rating, Galium ([3]; Preemergence, 31 g ai/ha): 35
- Plant response rating ([3]; Preemergence, 125 g ai/ha): 85
- Plant response rating ([3]; Preemergence, 250 g ai/ha): 85
- Plant response rating, Bromegrass, Downy ([4]; Preemergence, 62 g ai/ha): 0
- Plant response rating, Bromegrass, Downy ([4]; Preemergence, 31 g ai/ha): 0
- Plant response rating ([4]; Preemergence, 125 g ai/ha): 10
- Plant response rating ([4]; Preemergence, 250 g ai/ha): 25
- Plant response rating, Foxtail, Green ([5]; Preemergence, 62 g ai/ha): 80
- Plant response rating, Foxtail, Green ([5]; Preemergence, 31 g ai/ha): 15
- Plant response rating ([5]; Preemergence, 125 g ai/ha): 70
- Plant response rating ([5]; Preemergence, 250 g ai/ha): 85
- Plant response rating, Deadnettle ([6]; Preemergence, 62 g ai/ha): 65
- Plant response rating, Deadnettle ([6]; Preemergence, 31 g ai/ha): 15
- Plant response rating ([6]; Preemergence, 125 g ai/ha): 60
- Plant response rating ([6]; Preemergence, 250 g ai/ha): 75
- Plant response rating, Buckwheat, Wild ([7]; Preemergence, 62 g ai/ha): 75
- Plant response rating, Buckwheat, Wild ([7]; Preemergence, 31 g ai/ha): 0
- Plant response rating ([7]; Preemergence, 125 g ai/ha): 55
- Plant response rating ([7]; Preemergence, 250 g ai/ha): 55
